Experimental data from ChEMBL document CHEMBL1201862, “PubChem BioAssay data set” (2004).
Active and inactive are the calls of the source.

Key:
Beta-galactosidase = Beta-galactosidase (Escherichia coli, UniProt Q8VNN2); assay: Dose response counterscreen for EBI2 assay utilizing the enzyme, b-galactosidase.; type: functional
[1] = molecular target: Delta-type opioid receptor (Homo sapiens, UniProt P41143); assay: Counterscreen for agonists of heterodimerization of the mu 1 (OPRM1) and delta 1 (OPRD1) opioid receptors: Luminescence-based cell-based high throughput dose response assay to identify agonists of OPRD1 homodimerization. [Related pubchem assays (depositor defined):AID504326, AID504355, AID504692, AID504904, AID504905]; type: functional
Chain of Delta-type opioid receptor (P41143 whole entry): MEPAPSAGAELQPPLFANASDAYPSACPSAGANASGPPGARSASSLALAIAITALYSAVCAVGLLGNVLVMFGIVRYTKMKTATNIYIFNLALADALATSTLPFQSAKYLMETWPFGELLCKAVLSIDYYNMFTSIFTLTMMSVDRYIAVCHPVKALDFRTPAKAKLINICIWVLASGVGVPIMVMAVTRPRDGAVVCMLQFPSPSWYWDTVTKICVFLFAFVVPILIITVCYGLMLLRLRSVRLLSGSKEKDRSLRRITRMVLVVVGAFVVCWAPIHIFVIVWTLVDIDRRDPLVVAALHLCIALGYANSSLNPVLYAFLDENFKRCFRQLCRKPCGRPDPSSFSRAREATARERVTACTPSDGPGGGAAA

[2] = HepG2 cell cytotoxicity, dose response, cytotoxicity control for Shn3 inhibitor project, CellTiter-Glo, cherry-picked (AID 624134); type: functional, cell-based
[3] = control 3'UTR Renilla luciferase suppression, dose response, counter-screen for Shn3 inhibitor project, cell-based, Clone20-Shn3RL, cherry-picked (AID 624133); type: functional
[4] = molecular target: 5-hydroxytryptamine receptor 5A (Homo sapiens, UniProt P47898); assay: Counterscreen for agonists of OPRM1-OPRD1 heterodimerization: luminescence-based cell-based high throughput dose response assay to identify agonists of 5-hydroxytryptamine (serotonin) 5A receptor (HTR5A). [Related pubchem assays (depositor defined):AID504326, AID504355, AID504692, AID504904, AID504905]; type: functional
Chain of 5-hydroxytryptamine receptor 5A (P47898 whole entry): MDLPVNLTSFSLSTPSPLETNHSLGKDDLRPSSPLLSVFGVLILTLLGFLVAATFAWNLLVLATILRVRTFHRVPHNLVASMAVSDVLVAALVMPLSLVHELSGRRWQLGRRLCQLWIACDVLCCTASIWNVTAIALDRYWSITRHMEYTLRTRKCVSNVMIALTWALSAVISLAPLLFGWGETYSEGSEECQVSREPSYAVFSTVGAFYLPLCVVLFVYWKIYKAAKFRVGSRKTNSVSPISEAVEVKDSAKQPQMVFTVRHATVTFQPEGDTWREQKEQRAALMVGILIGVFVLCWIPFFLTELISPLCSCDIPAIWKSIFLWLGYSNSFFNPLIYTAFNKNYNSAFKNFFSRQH

Mu-type opioid receptor = Mu-type opioid receptor (Homo sapiens, UniProt P35372); assay: Counterscreen for agonists of heterodimerization of the mu 1 (OPRM1) and delta 1 (OPRD1) opioid receptors: Luminescence-based cell-based high throughput dose response assay to identify agonists of OPRM1 homodimerization.; type: functional;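 also: U2OS cells expressing OPRM1 and beta-arrestin as split beta-galactosidase partners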
Chain of Mu-type opioid receptor (P35372 whole entry): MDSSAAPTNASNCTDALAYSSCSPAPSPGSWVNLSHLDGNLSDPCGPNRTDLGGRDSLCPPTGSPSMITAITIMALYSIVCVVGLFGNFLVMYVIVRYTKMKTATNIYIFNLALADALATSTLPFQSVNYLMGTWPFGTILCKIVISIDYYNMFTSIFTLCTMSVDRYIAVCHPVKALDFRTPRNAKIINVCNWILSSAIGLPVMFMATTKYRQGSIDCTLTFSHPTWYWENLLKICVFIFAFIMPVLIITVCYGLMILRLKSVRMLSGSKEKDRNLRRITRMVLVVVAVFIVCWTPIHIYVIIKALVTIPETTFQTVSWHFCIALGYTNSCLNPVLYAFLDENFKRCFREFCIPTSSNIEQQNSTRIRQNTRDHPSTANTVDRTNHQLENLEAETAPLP

[5] = molecular target: SWI/SNF-related matrix-associated actin-dependent regulator of chromatin subfamily A member 2 (Homo sapiens, UniProt P51531); assay: Luminescence-based cell-based high throughput dose response assay to identify activators of the function of SWI/SNF related, matrix associated, actin dependent regulator of chromatin, subfamily a, member 2 (SMARCA2, BRM).; type: functional
[6] = Shn3 3'UTR reporter inhibitors, dose response, cell-based, Clone20 osteoblasts, firefly luciferase, cherry-picked (AID 624132); type: functional;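 also: firefly luciferase luminescence from reporter carrying the Shn3 3'UTR in osteoblasts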
[7] = Counterscreen for activators of the function of SWI/SNF related, matrix associated, actin dependent regulator of chromatin, subfamily a, member 2 (SMARCA2, BRM): Luminescence-based cell-based high throughput dose response assay to identify non-selective compounds using the VP16 reporter assay.; type: functional
[8] = molecular target: Potassium channel subfamily K member 9 (Homo sapiens, UniProt Q9NPC2); assay: TASK3 (KCNK9) channel inhibitors, thallium flux, SAR follow-up, selectivity assay for TASK1 inhibitor project, cell-based, FluxOR thallium flux, concentration-response (AID 652211); type: functional;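 also: potency is for inhibitors of the channel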
Chain of Potassium channel subfamily K member 9 (Q9NPC2 whole entry): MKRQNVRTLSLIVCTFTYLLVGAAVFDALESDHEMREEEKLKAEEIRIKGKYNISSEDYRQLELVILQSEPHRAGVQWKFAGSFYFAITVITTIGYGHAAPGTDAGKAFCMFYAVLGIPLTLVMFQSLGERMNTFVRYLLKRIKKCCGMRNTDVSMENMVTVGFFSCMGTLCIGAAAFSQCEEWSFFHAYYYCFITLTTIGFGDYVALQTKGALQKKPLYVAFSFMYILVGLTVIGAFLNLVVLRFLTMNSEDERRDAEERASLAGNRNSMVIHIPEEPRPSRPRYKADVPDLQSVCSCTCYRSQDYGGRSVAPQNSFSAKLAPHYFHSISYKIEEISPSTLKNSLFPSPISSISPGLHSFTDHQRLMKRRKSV

HEK293 = assay: inhibitors of LMP1-driven NF-kB reporter, dose response, cell-based, HEK293, luciferase, cherry-pick (AID 588343); type: functional; details: Homo sapiens
Vero = Vero cell cytotoxicity, cytotoxicity control for flavivirus capping enzyme inhibitors (AID 588742); type: functional; details: Chlorocebus sabaeus
[9] = Fluorescence-based cell-based high throughput dose response assay for inhibitors of the interaction of nucleotide-binding oligomerization domain containing 2 (NOD2) and the receptor-interacting serine-threonine kinase 2 (RIPK2).; type: functional; details: Homo sapiens
Interleukin-8 [10] = molecular target: T1, Interleukin-8 (Homo sapiens, UniProt P10145); assay: Dose Response confirmation of uHTS small molecule hits for cystic fibrosis induced NFkb Inhibitors in a TNFa-induced IL8 counterscreen.; type: functional; details: read-out: IC50_Mean
T1 sequence (P10145 whole entry): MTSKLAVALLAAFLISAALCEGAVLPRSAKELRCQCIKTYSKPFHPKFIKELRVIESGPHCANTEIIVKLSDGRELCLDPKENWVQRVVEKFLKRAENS

Interleukin-8 [11] = molecular target: T1, Interleukin-8; assay: Dose Response confirmation of uHTS small molecule hits for cystic fibrosis induced NFkb Inhibitors in a PAF-induced IL8 counterscreen.; type: functional; details: read-out: IC50_Mean
Paired box protein Pax-8 = Paired box protein Pax-8 (Homo sapiens, UniProt Q06710); assay: inhibitors of PAX8-driven TPO luciferase reporter, dose response, RMG-I cells, cherry-pick (AID 687027); type: functional, cell-based;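 also: luciferase reporter driven by Pax8 target thyroperoxidase promoter measured by SteadyGlo luminescence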
Chain of Paired box protein Pax-8 (Q06710 whole entry): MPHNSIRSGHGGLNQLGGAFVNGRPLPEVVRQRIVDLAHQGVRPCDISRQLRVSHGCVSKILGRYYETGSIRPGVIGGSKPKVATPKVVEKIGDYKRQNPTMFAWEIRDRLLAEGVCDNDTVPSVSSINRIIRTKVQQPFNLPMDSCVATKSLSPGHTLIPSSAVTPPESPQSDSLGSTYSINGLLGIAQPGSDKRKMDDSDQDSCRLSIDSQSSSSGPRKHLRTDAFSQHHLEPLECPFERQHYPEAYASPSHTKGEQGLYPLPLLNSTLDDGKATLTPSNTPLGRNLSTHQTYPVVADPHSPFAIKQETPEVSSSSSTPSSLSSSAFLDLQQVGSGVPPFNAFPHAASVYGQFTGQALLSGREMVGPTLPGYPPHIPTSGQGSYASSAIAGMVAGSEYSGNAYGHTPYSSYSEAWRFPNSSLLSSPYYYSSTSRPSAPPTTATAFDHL

[12] = molecular target: T2, Low molecular weight phosphotyrosine protein phosphatase (Homo sapiens, UniProt P24666); type: functional; details: read-out: IC50_Mean
T2 sequence (P24666 whole entry): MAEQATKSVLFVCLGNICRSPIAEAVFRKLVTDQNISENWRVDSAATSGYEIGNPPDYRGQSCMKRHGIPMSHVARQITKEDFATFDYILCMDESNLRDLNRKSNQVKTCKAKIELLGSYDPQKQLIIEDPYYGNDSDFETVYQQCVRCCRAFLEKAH

[13] = molecular target: T2, Low molecular weight phosphotyrosine protein phosphatase; type: functional; details: read-out: IC50_Mean; remark: listed apart in the source
[14] = molecular target: Arf-GAP with SH3 domain, ANK repeat and PH domain-containing protein 1 (Homo sapiens, UniProt Q9ULH1); type: functional;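 also: biochemical fluorescence polarization dose–response screen measuring inhibition of ASAP1; ASAP1 GAP domain stimulating GTP hydrolysis by truncated human ARF1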
Chain of Arf-GAP with SH3 domain, ANK repeat and PH domain-containing protein 1 (Q9ULH1 whole entry, the tested form may be a part): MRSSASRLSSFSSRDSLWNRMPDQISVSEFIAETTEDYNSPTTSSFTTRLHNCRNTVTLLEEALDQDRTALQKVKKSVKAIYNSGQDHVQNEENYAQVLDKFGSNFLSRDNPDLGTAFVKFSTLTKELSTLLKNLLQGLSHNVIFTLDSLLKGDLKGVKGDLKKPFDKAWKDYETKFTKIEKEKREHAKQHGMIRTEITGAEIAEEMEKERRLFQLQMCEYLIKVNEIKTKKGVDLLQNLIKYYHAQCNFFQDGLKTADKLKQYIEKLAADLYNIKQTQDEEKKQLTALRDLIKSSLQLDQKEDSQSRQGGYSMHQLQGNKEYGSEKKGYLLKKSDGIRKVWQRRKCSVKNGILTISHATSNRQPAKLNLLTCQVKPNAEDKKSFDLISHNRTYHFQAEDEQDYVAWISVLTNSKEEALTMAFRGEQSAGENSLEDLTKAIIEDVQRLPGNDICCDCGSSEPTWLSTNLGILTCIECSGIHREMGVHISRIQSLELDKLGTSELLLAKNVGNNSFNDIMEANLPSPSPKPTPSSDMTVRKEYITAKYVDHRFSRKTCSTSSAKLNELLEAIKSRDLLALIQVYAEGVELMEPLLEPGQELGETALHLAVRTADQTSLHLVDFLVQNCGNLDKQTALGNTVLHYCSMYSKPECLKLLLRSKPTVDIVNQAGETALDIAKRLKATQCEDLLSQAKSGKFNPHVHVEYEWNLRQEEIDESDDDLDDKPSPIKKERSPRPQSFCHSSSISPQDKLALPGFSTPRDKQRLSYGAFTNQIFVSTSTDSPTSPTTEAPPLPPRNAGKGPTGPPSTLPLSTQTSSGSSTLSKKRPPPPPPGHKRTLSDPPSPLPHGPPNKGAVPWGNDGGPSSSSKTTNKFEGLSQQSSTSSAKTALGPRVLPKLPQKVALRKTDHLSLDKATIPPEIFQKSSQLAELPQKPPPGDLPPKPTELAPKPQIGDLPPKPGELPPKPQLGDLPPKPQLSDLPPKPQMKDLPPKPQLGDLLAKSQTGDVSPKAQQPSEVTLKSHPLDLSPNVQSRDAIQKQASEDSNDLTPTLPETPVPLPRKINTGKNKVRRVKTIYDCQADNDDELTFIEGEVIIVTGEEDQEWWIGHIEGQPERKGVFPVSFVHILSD

[15] = molecular target: T3, Heat shock factor protein 1 (Mus musculus, UniProt P38532); assay: inhibition of MG132-induced HSE-luciferase signal, confirmation, cell-based, NIH3T3, luminescence, dose retest (AID 2382); type: functional;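 also: NIH3T3 fibroblasts with HSF1-driven luciferase reporter stressed by proteasome inhibitor MG132; luminescence from HSF1-driven luciferase expression after 8 hours of MG132 stress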
T3 sequence (P38532 whole entry): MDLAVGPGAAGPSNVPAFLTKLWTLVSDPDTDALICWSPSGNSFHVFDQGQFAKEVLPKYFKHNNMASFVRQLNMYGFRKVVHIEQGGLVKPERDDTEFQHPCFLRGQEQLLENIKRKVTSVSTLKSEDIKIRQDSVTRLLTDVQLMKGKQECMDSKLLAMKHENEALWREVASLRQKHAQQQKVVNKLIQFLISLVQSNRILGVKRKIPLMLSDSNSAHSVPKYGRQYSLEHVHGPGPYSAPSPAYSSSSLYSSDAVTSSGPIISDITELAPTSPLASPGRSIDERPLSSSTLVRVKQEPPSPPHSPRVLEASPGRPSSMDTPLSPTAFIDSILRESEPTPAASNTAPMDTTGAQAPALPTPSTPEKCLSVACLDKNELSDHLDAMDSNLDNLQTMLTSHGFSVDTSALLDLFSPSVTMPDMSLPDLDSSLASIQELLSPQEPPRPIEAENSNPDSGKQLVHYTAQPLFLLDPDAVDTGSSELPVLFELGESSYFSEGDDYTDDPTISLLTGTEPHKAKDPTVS

Chain of Beta-galactosidase (Q8VNN2 whole entry): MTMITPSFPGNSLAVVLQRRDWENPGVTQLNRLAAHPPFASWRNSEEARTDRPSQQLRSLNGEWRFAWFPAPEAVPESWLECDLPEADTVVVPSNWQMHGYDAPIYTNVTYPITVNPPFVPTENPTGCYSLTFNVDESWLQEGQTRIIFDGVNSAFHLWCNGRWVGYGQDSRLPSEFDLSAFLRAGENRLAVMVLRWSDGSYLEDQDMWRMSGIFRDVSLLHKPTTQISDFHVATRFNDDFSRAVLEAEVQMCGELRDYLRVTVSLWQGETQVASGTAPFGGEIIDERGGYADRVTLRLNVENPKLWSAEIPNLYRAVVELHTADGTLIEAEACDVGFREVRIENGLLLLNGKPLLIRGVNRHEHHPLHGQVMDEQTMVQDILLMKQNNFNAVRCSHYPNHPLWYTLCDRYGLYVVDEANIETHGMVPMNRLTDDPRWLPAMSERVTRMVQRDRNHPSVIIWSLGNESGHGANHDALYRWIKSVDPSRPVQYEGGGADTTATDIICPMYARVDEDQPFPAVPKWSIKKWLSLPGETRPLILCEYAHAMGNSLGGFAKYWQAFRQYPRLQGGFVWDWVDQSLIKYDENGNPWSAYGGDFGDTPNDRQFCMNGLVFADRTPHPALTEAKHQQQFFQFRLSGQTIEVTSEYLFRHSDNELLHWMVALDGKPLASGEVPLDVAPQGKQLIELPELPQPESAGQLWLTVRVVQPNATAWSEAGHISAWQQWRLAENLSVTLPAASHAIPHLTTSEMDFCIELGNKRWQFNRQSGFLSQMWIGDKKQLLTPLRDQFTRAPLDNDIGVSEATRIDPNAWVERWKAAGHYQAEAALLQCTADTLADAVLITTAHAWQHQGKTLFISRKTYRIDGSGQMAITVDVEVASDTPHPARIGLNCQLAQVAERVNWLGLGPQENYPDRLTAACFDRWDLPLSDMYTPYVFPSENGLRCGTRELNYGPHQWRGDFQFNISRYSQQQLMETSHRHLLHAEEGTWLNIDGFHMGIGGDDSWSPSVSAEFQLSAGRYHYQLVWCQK

O=C(c1cc2cc(Br)ccc2[nH]1)N1CCC2(CC1)OCCO2
IC50 (Beta-galactosidase): > 80 µM (inactive)

CN1CCN(Cc2nc3ccccc3c(=O)n2Cc2nc(-c3ccc4ccccc4c3)cs2)CC1
EC50 [1]: > 92.5 µM (inactive) | AC50 [2]: 8.34 µM (active) | AC50 [3]: 11.7 µM (active) | EC50 [4]: > 92.5 µM (inactive) | EC50 (Mu-type opioid receptor): > 92.5 µM (inactive) | EC50 [5]: > 91.2 µM (inactive) | AC50 [6]: 11 µM (active) | EC50 [7]: > 91.2 µM (inactive)

Cc1cccc(C(=O)Nc2cccc(NC(=O)c3ccccc3C(C)C)c2)c1
IC50 [8]: 2.39 µM (active)

CC(=O)OC1CCC2(C)C(CCC3C4CC=C(C(C)=O)C4(C)OC(=O)CC32)C1 (stereo unspecified)
AC50 (HEK293): 1.65 µM (active) | CC50 (Vero): 34.9 µM (active) | IC50 [9]: 5.12 µM (active) | IC50 (Interleukin-8 [10]): 1.12 µM (active) | IC50 (Interleukin-8 [11]): 0.338 µM (active) | AC50 (Paired box protein Pax-8): 6.49 µM (active)

O=C(/C=C\Nc1ccc2c(c1)OCO2)c1ccc(Cl)s1
IC50 [12]: 19.9 µM (active) | IC50 [13]: > 80 µM (inactive)

CCCCN(Cc1ccco1)C(=O)Cn1ncc2c(=O)oc3ccc(C)cc3c21
IC50 (Beta-galactosidase): > 80 µM (inactive) | IC50 [14]: 53.2 µM (inactive) | EC50 [15]: > 195 µM (not active)
